According to publication PMC6978316, “Development of chimeric peptides to facilitate the neutralisation of lipopolysaccharides during bactericidal targeting of multidrug-resistant Escherichia coli” (Communications Biology, 2020):
Where a SMILES comes first, the peptide text is derived from it. Bridges are numbered along the chain shown (N, C = ends).

Columns and labels:
[1] = tested on: IκBα; test: Western blotting of lung tissues, IκBα/β-actin; assay type: in vivo, mice; details: for densitometric analysis of IκBα/β-actin ratio: LPS + substance, Mean; for effect on LPS-induced IκBα levels: lung tissue 8 h, LPS 13.5 mg per kg, western blotting
Protocol: Additionally, the mice were sacrificed at 8 h and the lung tissues were homogenized and suspended in […] HEPES buffer for 20 min according to standard procedures. After centrifugation at 4 °C for 20 min (12,000 rpm), the protein levels of supernatants were quantified using a Bradford protein assay kit. A total of 30 μg proteins were analyzed on an 8–12% sodium dodecyl sulfate-polyacrylamide gel electrophoresis (SDS-PAGE) gel and were immunoblotted onto PVDF membranes, followed by an incubation with the primary antibodies of p65, p-p65, extracellular signal-regulated kinase (ERK)1/2, p-ERK1/2, and IκBα overnight at 4 °C. After washing, the blots were incubated with the peroxidase conjugated goat-rabbit or goat-mouse antibodies. Relative protein expression levels were quantified by a densitometric measurement of chemiluminescence (ECL) reaction band. β-actin was used as the internal reference.

[2] = tested on: LPS-induced lung injury; test: Protection of lung tissues from LPS (histology); assay type: in vivo; details: LPS-challenged mice, 0.25 μmol per kg
Protocol: The mice were treated with N6 (0.25 μmol per kg), A6 (0.25 μmol per kg), G6 (0.25 μmol per kg), and PMB (10 μmol per kg), respectively after the intraperitoneal injection of LPS at a concentration of LD100. The lung tissues were taken at 1 d and 6 d, respectively, washed with PBS and placed in 4% paraformaldehyde for 24 h at 4 °C. After washing with PBS, the tissues were dehydrated by a series of different concentrations of ethanol (75%, 85%, 90%, and 95%) and were immersed in xylene for paraffin embedding. After sectioning, the samples were stained with hematoxylin and were observed by a light microscope. The mice challenged with LPS and PBS served as the negative and blank control, respectively.

[3] = tested on: binding of LPS to LBP; test: Binding of LPS to LBP on LPS-immobilized plate (ELISA); assay type: biochemical; details: mean of n = 3
Protocol: The 96-well microtiter plates were coated with 4 ng per ml LPS (0.1 M Na2CO3 and 20 mM EDTA, pH 9.6, 50 μl per well) overnight at 4 °C, washed three times with PBST, and blocked with PBS (containing 1% BSA) for 2 h. After washing with PBST again, the plates were incubated at 37 °C for 1 h with different concentrations of peptides (A6, G6, or N6), which were dissolved in Dulbecco's Modified Eagle's (DMEM) medium (containing 10% FBS). After washing, cells were incubated with anti-LBP mAb 6G3 (ThermoFisher) for 1 h at 37 °C and HRP-conjugated rabbit anti-mouse IgG for 1 h at room temperature, respectively. Tetramethylbenzidine (TMB) solution was then added and incubated for 25–30 min. Finally, the reaction was stopped by addition of 0.5 M H2SO4, and the absorbance was measured at 450 nm[50].

[4] = tested on: MDR E. coli CVCC195; test: SEM and TEM, cell morphology and ultrastructure; assay type: cell-based, Escherichia coli; details: E. coli CVCC195, 4 × MIC, 2 h; at least 200 cells scored; manuscript lines quoted in the peer review file
Protocol: SEM was used to examine the ultrastructural changes in bacteria treated with peptides. […] PBS was used as the negative control. After centrifugation, the bacterial precipitation was added with 2.5% glutaraldehyde and the cells were fixed at 4 °C for 24 h. After ethanol dehydration, drying and coating, samples were visualized by a QUANTA200 SEM (FEI, Philips, Netherlands)[65].
The processing and preparation of TEM samples was similar to that of SEM until glutaraldehyde fixation. After washing with PBS, bacterial cells were fixed in 1% […] buffer for 1 h, dehydrated in a series of acetone (50–100%) and embedded, followed by preparation into ultra-thin sections and staining with 1% uranyl acetate. […] At least 200 bacterial cells were visualized and scored for the observed characteristics.

[5] = tested on: E. coli LPS; test: BODIPY-TR-cadaverine (BC) displacement assay; assay type: binding, Escherichia coli; details: 100 μM
Protocol: The affinity of SCPs (A6, G6, and N6) to E. coli LPS was detected by the fluorescent BC probe. The binding of fluorescent probe with LPS can cause fluorescence quenching. When peptides bind to LPS, BC probe can be replaced, which can result in an increase in fluorescence. Equal volumes of LPS (40 μg per ml) and BC probe (10 μM) in 50 mM Tris buffer (pH 7.4) were mixed and added into a black 96-well microtiter plate (180 μl mixture per well), followed by the addition of different concentrations of A6, G6, or N6 (20 μl per well). Ampicillin and PMB were used as the negative and positive control, respectively. Changes in fluorescence were measured by a fluorescence spectrophotometry at room temperature (excitation: 580 nm, emission: 620 nm) and the BC displacement rate was calculated.

[6] = tested on: E. coli LPS; test: Sepsis mouse model, survival after lethal LPS challenge; assay type: in vivo, ICR mice; details: mice, LPS 13.5 mg per kg i.p., 7 d, n = 5; for survival rate: 0.0625 μmol per kg; for mouse survival: 0.125 μmol per kg
Protocol: The mouse survival was recorded for 7 d. The mice injected with LPS or saline were used as negative or blank controls, respectively.

[7] = tested on: binding of FITC-labeled LPS to RAW 264.7 cells; test: Binding of FITC-labeled LPS to macrophages (flow cytometry); assay type: cell-based, mouse; details: FITC-LPS 100 μg per ml, 0.1 μM peptide 1 h
Protocol: Similarly, after an incubation with FITC-labeled LPS and washing with medium, cells were incubated with rhodamine-labeled A6 or G6 (0.1 μM) at 37 °C for 1 h. After washing again, the effects of peptides on the binding of FITC-labeled LPS to the cells were analyzed by CLSM and flow cytometry, respectively.

[8] = 0.625 μM, LPS-coated plate, peptide in DMEM + 10% FBS, 37 °C, 1 h, anti-LBP mAb, OD450

CC(C)[C@@H]1NC(=O)CNC(=O)[C@H](CC(N)=O)NC(=O)[C@H](CCCNC(=N)N)NC(=O)[C@H](Cc2ccc(O)cc2)NC(=O)[C@H](C(C)C)NC(=O)[C@@H](NC(=O)[C@@H](NC(=O)[C@H](CC(N)=O)NC(=O)[C@H](Cc2c[nH]c3ccccc23)NC(=O)[C@H](C)NC(=O)[C@H](Cc2ccccc2)NC(=O)CNC(=O)[C@H](CO)NC(=O)CNC(=O)CNC(=O)CNC(=O)CNC(=O)[C@H](CCCCN)NC(=O)[C@H](Cc2ccccc2)NC(=O)[C@H](Cc2ccccc2)NC(=O)[C@H](CO)NC(=O)[C@H](C)NC(=O)[C@H](CCCNC(=N)N)NC(=O)[C@@H](NC(=O)[C@H](CCCCN)NC(=O)[C@H](Cc2c[nH]c3ccccc23)NC(=O)[C@H](CCCNC(=N)N)NC(=O)CNC(=O)[C@H](CCC(N)=O)NC(=O)[C@@H](NC(=O)[C@@H](N)CCCNC(=N)N)C(C)C)C(C)C)C(C)C)CSSC[C@@H](C(=O)N[C@@H](Cc2c[nH]cn2)C(=O)N[C@@H](CCCNC(=N)N)C(=O)N[C@@H](CCCNC(=N)N)C(=O)N[C@@H](C)C(=O)N[C@@H](CC(N)=O)C(=O)O)NC(=O)[C@H](C(C)C)NC(=O)[C@H](CCCNC(=N)N)NC1=O [G6] (H-RVQGRWKVRASFFKGGGGSGFAWNVCVYRNGVRVCHRRAN-OH; disulfide 26-35)
densitometric analysis of IκBα/β-actin ratio [1]: 0.9933 | effect on LPS-induced IκBα levels [1]: promoted LPS-induced IκBα levels | lung histology at 1 d [2]: partial alleviation of tissue swelling and injury | lung histology at 6 d [2]: no pathological changes | LPS-LBP binding (relative), Mean [3, 8]: 0.7905 | LPS-LBP binding (relative), Mean ([3]; 1.25 μM): 0.7506 | LPS-LBP binding (relative), Mean ([3]; 2.5 μM): 0.344 | LPS-LBP binding (relative), Mean ([3]; 5 μM): 0.2387 | LPS-LBP binding (relative), Mean ([3]; 10 μM): 0.1958 | LPS-LBP binding (relative), Mean ([3]; 20 μM): 0.1311 | LPS-LBP binding (relative), Mean ([3]; 40 μM): 0.1347 | abnormal cells in TEM (lysis, non-uniform cytoplasmic electron and morphologically abnormal cells) [4]: ~50% | BC displacement ratio [5]: 100% | survival rate [6]: 80% | mouse survival [6]: 100% | inhibition rate of FITC-labeled LPS binding to RAW 264.7 cells [7]: 44.3%

polymyxin B [PMB]
densitometric analysis of IκBα/β-actin ratio [1]: 1.0324 | effect on LPS-induced IκBα levels [1]: promoted LPS-induced IκBα levels | LPS-LBP binding (relative), Mean [3, 8]: 0.8274 | LPS-LBP binding (relative), Mean ([3]; 1.25 μM): 0.5768 | LPS-LBP binding (relative), Mean ([3]; 2.5 μM): 0.4491 | LPS-LBP binding (relative), Mean ([3]; 5 μM): 0.3343 | LPS-LBP binding (relative), Mean ([3]; 10 μM): 0.393 | LPS-LBP binding (relative), Mean ([3]; 20 μM): 0.3466 | LPS-LBP binding (relative), Mean ([3]; 40 μM): 0.2168 | abnormal cells in TEM (lysis, non-uniform cytoplasmic electron and morphologically abnormal cells) [4]: 1% | BC displacement ratio [5]: 83.7% | survival ([6]; 10 μmol per kg): All mice survived | inhibition rate of FITC-labeled LPS binding to RAW 264.7 cells [7]: 13.5%

H-RVQGRWKVRASFFKEAAAKEAAAKGFAWNVCVYRNGVRVCHRRAN-OH (disulfide 31-40) [A6]
densitometric analysis of IκBα/β-actin ratio [1]: 1.193 | effect on LPS-induced IκBα levels [1]: promoted LPS-induced IκBα levels | lung histology at 1 d [2]: partial alleviation of tissue swelling and injury | lung histology at 6 d [2]: no pathological changes | LPS-LBP binding (relative), Mean [3, 8]: 0.6863 | LPS-LBP binding (relative), Mean ([3]; 1.25 μM): 0.4991 | LPS-LBP binding (relative), Mean ([3]; 2.5 μM): 0.4036 | LPS-LBP binding (relative), Mean ([3]; 5 μM): 0.3236 | LPS-LBP binding (relative), Mean ([3]; 10 μM): 0.2858 | LPS-LBP binding (relative), Mean ([3]; 20 μM): 0.2468 | LPS-LBP binding (relative), Mean ([3]; 40 μM): 0.1705 | abnormal cells in TEM (lysis, non-uniform cytoplasmic electron and morphologically abnormal cells) [4]: Approximately 75% | BC displacement ratio [5]: 100% | survival rate [6]: 60% | mouse survival [6]: 100% | inhibition rate of FITC-labeled LPS binding to RAW 264.7 cells [7]: 33.2%

CC(C)[C@@H]1NC(=O)CNC(=O)[C@H](CC(N)=O)NC(=O)[C@H](CCCNC(=N)N)NC(=O)[C@H](Cc2ccc(O)cc2)NC(=O)[C@H](C(C)C)NC(=O)[C@@H](NC(=O)[C@@H](NC(=O)[C@H](CC(N)=O)NC(=O)[C@H](Cc2c[nH]c3ccccc23)NC(=O)[C@H](C)NC(=O)[C@H](Cc2ccccc2)NC(=O)CN)C(C)C)CSSC[C@@H](C(=O)N[C@@H](Cc2c[nH]cn2)C(=O)N[C@@H](CCCNC(=N)N)C(=O)N[C@@H](CCCNC(=N)N)C(=O)N[C@@H](C)C(=O)N[C@@H](CC(N)=O)C(=O)O)NC(=O)[C@H](C(C)C)NC(=O)[C@H](CCCNC(=N)N)NC1=O [N6] (H-GFAWNVCVYRNGVRVCHRRAN-OH; disulfide 7-16; N-terminus and C-terminus assumed)
densitometric analysis of IκBα/β-actin ratio [1]: 1.158 | effect on LPS-induced IκBα levels [1]: promoted LPS-induced IκBα levels | lung histology at 1 d [2]: partial alleviation of tissue swelling and injury | lung histology at 6 d [2]: no pathological changes | LPS-LBP binding (relative), Mean [3, 8]: 0.82 | LPS-LBP binding (relative), Mean ([3]; 1.25 μM): 1.017 | LPS-LBP binding (relative), Mean ([3]; 2.5 μM): 0.8065 | LPS-LBP binding (relative), Mean ([3]; 5 μM): 0.8105 | LPS-LBP binding (relative), Mean ([3]; 10 μM): 0.7607 | LPS-LBP binding (relative), Mean ([3]; 20 μM): 0.6457 | LPS-LBP binding (relative), Mean ([3]; 40 μM): 0.5608 | abnormal cells in TEM (lysis, non-uniform cytoplasmic electron and morphologically abnormal cells) [4]: 19% | BC displacement ratio [5]: 90.5% | mouse survival [6]: 60% | survival ([6]; 0.25 μmol per kg): All mice survived | inhibition rate of FITC-labeled LPS binding to RAW 264.7 cells [7]: 8%
